Reference: patent US20150018384A1, “TREATMENT FOR HIGH CHOLESTEROL” (FibroGen, Inc., priority 2012, published 2015)

Tested on: Cholesterol Biosynthesis Genes in the Mouse Liver
Experiment: Microarray expression of cholesterol biosynthesis genes in mouse liver
Assay type: in vivo
Method: A number of PHI compounds were evaluated for their effect on the expression of cholesterol biosynthesis genes in mouse liver. […] Liver tissue was harvested and stored in RNALater (Life Technologies). Total RNA was isolated with Trizol (Life Technologies) and purified with RNEasy96 (Qiagen) according to the manufacturers' protocols. RNA concentration was measured by NanoDrop (Thermo), and quality was assessed by Bioanalyzer (Agilent).
Biotinylated microarray probe was prepared using the 3′IVT Express kit (Affymetrix) and hybridized to mouse 430A 2.0 arrays as recommended in the manufacturer's protocol. Arrays were stained, washed, and scanned using Affymetrix equipment and software. Three arrays were run for each treatment and time point, each representing the liver sample from one individual animal.
Animals were sacrificed 4 h or 8 h later. Each compound was tested in a separate animal study with separate controls. Liver tissue was harvested and stored in RNALater (Life Technologies). Total RNA was isolated with Trizol (Life Technologies) and purified with RNEasy96 (Qiagen) according to the manufacturers' protocols. RNA concentration was measured by NanoDrop (Thermo), and quality was assessed by Bioanalyzer (Agilent).
For microarray analysis, RNA from animals in each treatment group was pooled in pairs (n=3 pairs for 4 h vehicle, n=2 pairs for all other treatment groups, for a total of 13 arrays per compound study). This approach was used to improve the signal-to-noise ratio on microarrays. Biotinylated probe was prepared using the One-Cycle cDNA synthesis kit (Affymetrix) and hybridized to mouse 430A 2.0 arrays as recommended in the manufacturer's protocol. Arrays were stained, washed, and scanned using Affymetrix equipment and software.
Array quality was assessed with GeneChip Operating System and/or Command Console software (Affymetrix). CEL files were uploaded to GeneSpring 7.3.1 (Agilent) using GC-RMA baseline correction. Principal Components Analysis was used to identify and reject outlier arrays. Data are reported as fold-change compared to timepoint-matched vehicle controls from the same study. Values less than 1.0 indicate a reduction of RNA in the treated animal liver tissue.

`COc1ccc(Cn2c(Cl)c(Cl)c3c(O)c(C(=O)NCC(=O)O)nc(C#N)c32)cc1` [Compound F] was tested, and the “3-hydroxy-3-methylglutaryl-Coenzyme A reductase (Hmgcr) RNA expression” value (10 mg/kg oral, 4 h) was 0.17 fold-change, the “3-hydroxy-3-methylglutaryl-Coenzyme A synthase 1 (Hmgcs1) RNA expression” value (10 mg/kg oral, 4 h) was 0.36 fold-change and the “7-dehydrocholesterol reductase (Dhcr7) RNA expression” value (“7-dehydrocholesterol reductase” for short) (10 mg/kg oral, 4 h) was 0.63 fold-change. The “NAD(P) dependent steroid dehydrogenase-like (Nsdhl) RNA expression” value (10 mg/kg oral, 4 h) was 0.55 fold-change, the “acetyl-Coenzyme A acetyltransferase 2 (Acat2) RNA expression” value (10 mg/kg oral, 4 h) was 0.77 fold-change and the “cytochrome P450, family 51 (Cyp51) RNA expression” value (“cytochrome P450” for short) (10 mg/kg oral, 4 h) was 0.62 fold-change. For the same compound, the “farnesyl diphosphate farnesyl transferase 1 (Fdft1) RNA expression” value (10 mg/kg oral, 4 h) was 0.56 fold-change, the “farnesyl diphosphate synthetase (Fdps) RNA expression” value (“farnesyl diphosphate synthetase” for short) (10 mg/kg oral, 4 h) was 0.43 fold-change and the “isopentenyl-diphosphate delta isomerase (Idi1) RNA expression” value (“isopentenyl-diphosphate delta isomerase” for short) (10 mg/kg oral, 4 h) was 0.50 fold-change. For the same compound, the “lanosterol synthase (Lss) RNA expression” value (10 mg/kg oral, 4 h) was 0.51 fold-change, the “mevalonate (diphospho) decarboxylase (Mvd) RNA expression” value (“mevalonate (diphospho) decarboxylase” for short) (10 mg/kg oral, 4 h) was 0.28 fold-change and the “mevalonate kinase (Mvk) RNA expression” value (10 mg/kg oral, 4 h) was 0.76 fold-change. The “phosphomevalonate kinase (Pmvk) RNA expression” value (“phosphomevalonate kinase” for short) (10 mg/kg oral, 4 h) was 0.66 fold-change, the “squalene epoxidase (Sqle) RNA expression” value (10 mg/kg oral, 4 h) was 0.48 fold-change and the “sterol-C4-methyl oxidase-like (Sc4mol) RNA expression” value (from here on “sterol-C4-methyl oxidase-like”) (10 mg/kg oral, 4 h) was 0.39 fold-change. The “sterol-C5-desaturase (fungal ERG3, delta-5-desaturase) homolog (S. cerevisae) (Sc5d) RNA expression” value (10 mg/kg oral, 4 h) was 0.49 fold-change, the “3-hydroxy-3-methylglutaryl-Coenzyme A reductase (Hmgcr) RNA expression” value (10 mg/kg oral, 8 h) was 0.66 fold-change and the “3-hydroxy-3-methylglutaryl-Coenzyme A synthase 1 (Hmgcs1) RNA expression” value (10 mg/kg oral, 8 h) was 1.23 fold-change. For the same compound, the “7-dehydrocholesterol reductase” value (10 mg/kg oral, 8 h) was 1.18 fold-change, the “NAD(P) dependent steroid dehydrogenase-like (Nsdhl) RNA expression” value (10 mg/kg oral, 8 h) was 1.40 fold-change and the “acetyl-Coenzyme A acetyltransferase 2 (Acat2) RNA expression” value (10 mg/kg oral, 8 h) was 1.09 fold-change. The “cytochrome P450” value (10 mg/kg oral, 8 h) was 1.05 fold-change, the “farnesyl diphosphate farnesyl transferase 1 (Fdft1) RNA expression” value (10 mg/kg oral, 8 h) was 1.42 fold-change and the “farnesyl diphosphate synthetase” value (10 mg/kg oral, 8 h) was 1.15 fold-change. The “isopentenyl-diphosphate delta isomerase” value (10 mg/kg oral, 8 h) was 1.08 fold-change, the “lanosterol synthase (Lss) RNA expression” value (10 mg/kg oral, 8 h) was 1.04 fold-change and the “mevalonate (diphospho) decarboxylase” value (10 mg/kg oral, 8 h) was 0.58 fold-change. For the same compound, the “mevalonate kinase (Mvk) RNA expression” value (10 mg/kg oral, 8 h) was 0.88 fold-change, the “phosphomevalonate kinase” value (10 mg/kg oral, 8 h) was 1.53 fold-change and the “squalene epoxidase (Sqle) RNA expression” value (10 mg/kg oral, 8 h) was 0.81 fold-change. The “sterol-C4-methyl oxidase-like” value (10 mg/kg oral, 8 h) was 0.92 fold-change and the “sterol-C5-desaturase (fungal ERG3, delta-5-desaturase) homolog (S. cerevisae) (Sc5d) RNA expression” value (10 mg/kg oral, 8 h) was 0.52 fold-change.
For `CC(C)Oc1ccc2c(O)c(C(=O)NCC(=O)O)nc(C#N)c2c1` [Compound H, [(1-Cyano-4-hydroxy-7-isopropoxy-isoquinoline-3-carbonyl)-amino]-acetic acid], the “3-hydroxy-3-methylglutaryl-Coenzyme A reductase (Hmgcr) RNA expression” value (60 mg/kg oral, 4 h) was 0.23 fold-change, the “3-hydroxy-3-methylglutaryl-Coenzyme A synthase 1 (Hmgcs1) RNA expression” value (60 mg/kg oral, 4 h) was 0.62 fold-change and the “7-dehydrocholesterol reductase” value (60 mg/kg oral, 4 h) was 0.83 fold-change. For the same compound, the “NAD(P) dependent steroid dehydrogenase-like (Nsdhl) RNA expression” value (60 mg/kg oral, 4 h) was 0.76 fold-change, the “acetyl-Coenzyme A acetyltransferase 2 (Acat2) RNA expression” value (60 mg/kg oral, 4 h) was 0.71 fold-change and the “cytochrome P450” value (60 mg/kg oral, 4 h) was 0.66 fold-change. For the same compound, the “farnesyl diphosphate farnesyl transferase 1 (Fdft1) RNA expression” value (60 mg/kg oral, 4 h) was 0.59 fold-change, the “farnesyl diphosphate synthetase” value (60 mg/kg oral, 4 h) was 0.69 fold-change and the “isopentenyl-diphosphate delta isomerase” value (60 mg/kg oral, 4 h) was 0.63 fold-change. The “lanosterol synthase (Lss) RNA expression” value (60 mg/kg oral, 4 h) was 0.65 fold-change, the “mevalonate (diphospho) decarboxylase” value (60 mg/kg oral, 4 h) was 0.45 fold-change and the “mevalonate kinase (Mvk) RNA expression” value (60 mg/kg oral, 4 h) was 0.74 fold-change. For the same compound, the “phosphomevalonate kinase” value (60 mg/kg oral, 4 h) was 0.71 fold-change, the “squalene epoxidase (Sqle) RNA expression” value (60 mg/kg oral, 4 h) was 0.95 fold-change and the “sterol-C4-methyl oxidase-like” value (60 mg/kg oral, 4 h) was 0.50 fold-change. For the same compound, the “sterol-C5-desaturase (fungal ERG3, delta-5-desaturase) homolog (S. cerevisae) (Sc5d) RNA expression” value (60 mg/kg oral, 4 h) was 0.92 fold-change, the “3-hydroxy-3-methylglutaryl-Coenzyme A reductase (Hmgcr) RNA expression” value (60 mg/kg oral, 8 h) was 0.17 fold-change and the “3-hydroxy-3-methylglutaryl-Coenzyme A synthase 1 (Hmgcs1) RNA expression” value (60 mg/kg oral, 8 h) was 0.19 fold-change. The “7-dehydrocholesterol reductase” value (60 mg/kg oral, 8 h) was 0.39 fold-change, the “NAD(P) dependent steroid dehydrogenase-like (Nsdhl) RNA expression” value (60 mg/kg oral, 8 h) was 0.34 fold-change and the “acetyl-Coenzyme A acetyltransferase 2 (Acat2) RNA expression” value (60 mg/kg oral, 8 h) was 0.44 fold-change. The “cytochrome P450” value (60 mg/kg oral, 8 h) was 0.28 fold-change, the “farnesyl diphosphate farnesyl transferase 1 (Fdft1) RNA expression” value (60 mg/kg oral, 8 h) was 0.33 fold-change and the “farnesyl diphosphate synthetase” value (60 mg/kg oral, 8 h) was 0.24 fold-change. The “isopentenyl-diphosphate delta isomerase” value (60 mg/kg oral, 8 h) was 0.28 fold-change, the “lanosterol synthase (Lss) RNA expression” value (60 mg/kg oral, 8 h) was 0.35 fold-change and the “mevalonate (diphospho) decarboxylase” value (60 mg/kg oral, 8 h) was 0.24 fold-change. The “mevalonate kinase (Mvk) RNA expression” value (60 mg/kg oral, 8 h) was 0.37 fold-change, the “phosphomevalonate kinase” value (60 mg/kg oral, 8 h) was 0.5 fold-change and the “squalene epoxidase (Sqle) RNA expression” value (60 mg/kg oral, 8 h) was 0.30 fold-change. The “sterol-C4-methyl oxidase-like” value (60 mg/kg oral, 8 h) was 0.19 fold-change and the “sterol-C5-desaturase (fungal ERG3, delta-5-desaturase) homolog (S. cerevisae) (Sc5d) RNA expression” value (60 mg/kg oral, 8 h) was 0.61 fold-change.
